Measurements from patent US9850283B2, “Macrocyclic inhibitors of the PD-1/PD-L1 and CD80(B7-1)/PD-L1 protein/protein interactions” (BRISTOL-MYERS SQUIBB COMPANY, priority 2013, dated 2017).
Read-outs that look alike come from different tables or passages of the source. Starred links: 1 amine or outer side, 2 acyl side, 3 side chain; linkers in the order of their positions; H or OH if unused. Positions of bridges follow the written chain, without caps; N, C: chain ends. Non-standard residues stand in square brackets, D forms with d. Residues, ends and D or L forms follow the SMILES beside them. ξ: configuration not given here. Phe(2,4-Cl2) = N[C@@H](Cc1ccc(Cl)cc1Cl)C(=O)O; X16 = O=C([C@@H]1CC[C@H](O)CN1[*:1])[*:2]; Phe(4-Me) = Cc1ccc(C[C@H](N)C(=O)O)cc1; Bta = N[C@@H](Cc1csc2ccccc12)C(=O)O; Hyp = O=C(O)[C@@H]1C[C@@H](O)CN1; NMeF = CN[C@@H](Cc1ccccc1)C(=O)O; dNMeNle = CCCC[C@@H](NC)C(=O)O; NMeNle = CCCC[C@H](NC)C(=O)O; NMeA = CN[C@@H](C)C(=O)O; Nle = CCCC[C@H](N)C(=O)O; Orn = NCCC[C@H](N)C(=O)O; dDap = NC[C@@H](N)C(=O)O; Dab = NCC[C@H](N)C(=O)O; Dap = NC[C@H](N)C(=O)O; ξP = O=C(O)C1CCCN1; ξC = NC(CS)C(=O)O; Sar = CNCC(=O)O

What was measured:
[1] = target: T1, Human PD-L1/PD-1 (Homo sapiens, UniProt Q9NZQ7); experiment: HTRF PD-1-Ig/PD-L1-His binding assay (human PD-L1); conditions: cluster symbol; read-out: HTRF IC50 cluster
T1 construct: made in house; host or cells: HEK293T
Outline: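 The time-resolved fluorescence signal comes from Eu-cryptate anti-Ig (1 nM) and APC anti-His (20 nM) antibodies bound to a PD-1-Ig/PD-L1-His complex. Both partners lack transmembrane regions.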

[2] = target: T2, LK35.2-hPD-L1 cells / PE-labeled PD-1-Ig (Homo sapiens, UniProt Q9NZQ7); experiment: LK35.2-hPD-L1 cell binding high-content screening assay; assay type: cell-based; conditions: cluster symbol, read-out: CBA IC50 cluster
T2 construct: expressed in transfected cells; host or cells: LK35.2 mouse B cell line
Outline: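 Binding of PE-conjugated human PD-1-Ig (1 nM final) to human PD-L1 stably expressed on a mouse B-cell line (LK35.2) was measured by high-content imaging after washes. Compound and labeled PD-1-Ig were co-incubated 1 h at 37 °C with cells in RPMI/10% FCS.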

[3] = cell binding assay, cell line not given
[4] = cell line of CBA not given (LK35.2-hPD-L1 or 293T-hPD-L1)

T2 sequence (Q9NZQ7 19-290): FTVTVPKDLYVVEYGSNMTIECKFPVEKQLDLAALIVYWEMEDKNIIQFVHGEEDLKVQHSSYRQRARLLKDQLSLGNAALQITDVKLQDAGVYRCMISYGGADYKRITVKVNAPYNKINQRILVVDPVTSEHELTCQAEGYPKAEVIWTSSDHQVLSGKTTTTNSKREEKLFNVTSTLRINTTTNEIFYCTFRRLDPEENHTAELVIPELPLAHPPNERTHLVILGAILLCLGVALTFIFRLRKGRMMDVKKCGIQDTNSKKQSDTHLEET
T1 sequence (Q9NZQ7 with tags, fused parts or gaps): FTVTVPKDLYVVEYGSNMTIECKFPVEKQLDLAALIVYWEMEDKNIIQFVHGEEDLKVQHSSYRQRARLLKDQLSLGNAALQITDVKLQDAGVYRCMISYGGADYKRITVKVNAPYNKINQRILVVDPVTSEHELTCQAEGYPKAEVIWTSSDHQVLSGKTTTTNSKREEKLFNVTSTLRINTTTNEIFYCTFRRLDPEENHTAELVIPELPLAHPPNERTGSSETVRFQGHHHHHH

Row | IC50 [1] | IC50 [2, 3] | IC50 [2, 4] | Compound
1 | 0.385 to 6.74 nM | 4.78 to 72.9 nM | – | CCCC[C@H]1C(=O)N(C)[C@@H](CCCC)C(=O)N[C@@H](CCCNC(=N)N)C(=O)N[C@H](C(=O)NCC(N)=O)CSCC(=O)N[C@@H](Cc2ccc(Cl)cc2Cl)C(=O)N(C)[C@@H](C)C(=O)N[C@@H](CC(N)=O)C(=O)N2CCC[C@H]2C(=O)N[C@@H](Cc2cnc[nH]2)C(=O)N[C@@H](CC(C)C)C(=O)N2C[C@H](O)C[C@H]2C(=O)N[C@@H](Cc2c[nH]c3ccccc23)C(=O)N[C@@H](CO)C(=O)N[C@@H](Cc2c[nH]c3ccccc23)C(=O)N1C [Example 7062] ({CH2CO}-[Phe(2,4-Cl2)][NMeA]NPHL[Hyp]WSW[NMeNle][NMeNle]RCG-NH2; thioether N-14)
2 | 6.76 to 30.3 nM | > 74.3 nM | – | CCCC[C@H]1C(=O)N(C)[C@@H](CCCC)C(=O)N[C@@H](CO)C(=O)N[C@H](C(=O)NCC(N)=O)CSCC(=O)N[C@@H](Cc2ccccc2)C(=O)N(C)[C@@H](C)C(=O)N[C@@H](CC(N)=O)C(=O)N2CCC[C@H]2C(=O)N[C@@H](Cc2cnc[nH]2)C(=O)N[C@@H](CC(C)C)C(=O)N(C)CC(=O)N[C@@H](Cc2c[nH]c3ccccc23)C(=O)N[C@@H](CO)C(=O)N[C@@H](Cc2c[nH]c3ccccc23)C(=O)N1C [Example 10001] ({CH2CO}-F[NMeA]NPHL[Sar]WSW[NMeNle][NMeNle]SCG-NH2; thioether N-14)
3 | 0.385 to 6.74 nM | 4.78 to 72.9 nM | – | CCCC[C@H]1C(=O)N(C)[C@@H](CCCC)C(=O)N[C@@H](CC(C)C)C(=O)N[C@H](C(=O)NCC(N)=O)CSCC(=O)N[C@@H](Cc2ccc(O)cc2)C(=O)N(C)[C@@H](C)C(=O)N[C@@H](CC(N)=O)C(=O)N2CCC[C@H]2C(=O)N[C@@H](CN)C(=O)N[C@@H](CC(C)C)C(=O)N2C[C@@H](O)CC[C@H]2C(=O)N[C@@H](Cc2c[nH]c3ccccc23)C(=O)N[C@@H](CCN)C(=O)N[C@@H](Cc2c[nH]c3ccccc23)C(=O)N1C [Example 6042] ({CH2CO}-Y[NMeA]NP[Dap]L[X16]W[Dab]W[NMeNle][NMeNle]LCG-NH2; thioether N-14)
4 | 0.385 to 6.74 nM | 0.158 to 4.71 nM | – | CCCC[C@H]1C(=O)N(C)[C@@H](CCCC)C(=O)N[C@@H](CCCNC(=N)N)C(=O)NC(C(=O)NCC(N)=O)CSCC(=O)N[C@@H](Cc2ccc(O)cc2)C(=O)N(C)[C@@H](C)C(=O)N[C@@H](CC(N)=O)C(=O)N2CCC[C@H]2C(=O)N[C@@H](CC(N)=O)C(=O)N[C@@H](CC(C)C)C(=O)N2C[C@H](O)C[C@H]2C(=O)N[C@@H](Cc2c[nH]c3ccccc23)C(=O)N[C@@H](CO)C(=O)N[C@@H](Cc2c[nH]c3ccccc23)C(=O)N1C (stereo partly shown) [Example 9061] ({CH2CO}-Y[NMeA]NPNL[Hyp]WSW[NMeNle][NMeNle]R[ξC]G-NH2; thioether N-14)
5 | > 30.5 nM | – | > 74.3 nM | CCCC[C@H]1C(=O)N(C)CC(=O)N[C@@H](CC(=O)O)C(=O)N[C@@H](C(C)C)C(=O)N[C@@H](Cc2ccc(C)cc2)C(=O)N[C@@H](Cc2ccc(O)cc2)C(=O)N(C)CC(=O)N[C@@H](Cc2c[nH]c3ccccc23)C(=O)N[C@@H](Cc2ccc(O)cc2)C(=O)N[C@@H](CC(C)C)C(=O)N[C@H](C(=O)NCC(N)=O)CSCC(=O)N[C@@H](Cc2ccccc2)C(=O)N(C)[C@@H](Cc2ccccc2)C(=O)N1C [Example 3135] ({CH2CO}-F[NMeF][NMeNle][Sar]DV[Phe(4-Me)]Y[Sar]WYLCG-NH2; thioether N-13)
6 | 0.385 to 6.74 nM | 4.78 to 72.9 nM | – | CCCC[C@H]1C(=O)N(C)[C@@H](CCCC)C(=O)N[C@@H](CCN)C(=O)N[C@H](C(=O)NCC(N)=O)CSCC(=O)N[C@@H](Cc2ccccc2)C(=O)N(C)[C@@H](C)C(=O)N[C@@H](CC(N)=O)C(=O)N2CCC[C@H]2C(=O)N[C@@H](Cc2cnc[nH]2)C(=O)N[C@@H](CC(C)C)C(=O)N(C)CC(=O)N[C@@H](Cc2c[nH]c3ccccc23)C(=O)N[C@@H](CO)C(=O)N[C@@H](Cc2c[nH]c3ccccc23)C(=O)N1C [Example 5006] ({CH2CO}-F[NMeA]NPHL[Sar]WSW[NMeNle][NMeNle][Dab]CG-NH2; thioether N-14)
7 | 0.385 to 6.74 nM | – | 4.78 to 72.9 nM | CCCC[C@@H]1C(=O)N(C)[C@H](CCCC)C(=O)N[C@@H](C)C(=O)N[C@@H](C(=O)NCC(N)=O)CSCC(=O)N[C@@H](Cc2ccc(O)cc2)C(=O)N2CCCC2C(=O)N[C@H](CC(=O)O)C(=O)N2CCC[C@H]2C(=O)N[C@H](CN)C(=O)N[C@@H](CCC(N)=O)C(=O)N2CCCC2C(=O)N[C@H](Cc2c[nH]c3ccccc23)C(=O)N[C@@H](CCN)C(=O)N[C@@H](Cc2c[nH]c3ccccc23)C(=O)N1C (stereo partly shown) [Example 1208] ({CH2CO}-Y[ξP][dD]P[dDap]Q[ξP][dW][Dab]W[dNMeNle][dNMeNle]A[dC]G-NH2; thioether N-14)
8 | 6.76 to 30.3 nM | 0.158 to 4.71 nM | – | CCCC[C@H]1C(=O)N2CCC[C@@H]2C(=O)N[C@@H](CC(=O)O)C(=O)N[C@@H](C(C)C)C(=O)N(C)[C@@H](Cc2ccccc2)C(=O)N[C@@H](Cc2ccc(O)cc2)C(=O)N2CCC[C@@H]2C(=O)N[C@@H](Cc2c[nH]c3ccccc23)C(=O)N[C@@H](Cc2ccc(O)cc2)C(=O)N[C@@H](CC(C)C)C(=O)N[C@H](C(=O)NCC(N)=O)CSCC(=O)N[C@@H](Cc2ccccc2)C(=O)N(C)[C@@H](Cc2ccccc2)C(=O)N1C [Example 3574] (HELM PEPTIDE1{[O=C(C[*:3])[*:2]].F.[meF].[CCCC[C@@H](C(=O)[*:2])N(C)[*:1]].[dP].D.V.[meF].Y.[dP].W.Y.L.C.G.[am]}$PEPTIDE1,PEPTIDE1,1:R3-14:R3$$$V2.0)
9 | 0.385 to 6.74 nM | – | 0.158 to 4.71 nM | CCCC[C@H]1C(=O)N(C)[C@@H](CCCC)C(=O)N[C@@H](CCCNC(=N)N)C(=O)N[C@H](C(=O)NCC(N)=O)CSCC(=O)N[C@@H](Cc2ccc(O)cc2)C(=O)N(C)[C@@H](C)C(=O)N[C@@H](CC(N)=O)C(=O)N2CCC[C@H]2C(=O)N[C@@H](Cc2cnc[nH]2)C(=O)N[C@@H](CCC(=O)O)C(=O)N2CCC[C@H]2C(=O)N[C@@H](Cc2c[nH]c3ccccc23)C(=O)N[C@@H](CO)C(=O)N[C@@H](Cc2csc3ccccc23)C(=O)N1C [Example 1115] ({CH2CO}-Y[NMeA]NPHEPWS[Bta][NMeNle][NMeNle]RCG-NH2; thioether N-14)
10 | 6.76 to 30.3 nM | – | 4.78 to 72.9 nM | CCCC[C@H]1C(=O)N(C)[C@@H](CCCC)C(=O)N[C@@H](CCCN)C(=O)N[C@H](C(=O)NCC(N)=O)CSCC(=O)N[C@@H](Cc2ccc(O)cc2)C(=O)N2CCC[C@H]2C(=O)N[C@@H](CC(=O)O)C(=O)N2CCC[C@H]2C(=O)N[C@@H](CN)C(=O)N[C@@H](CCC(N)=O)C(=O)N2C[C@H](O)C[C@H]2C(=O)N[C@@H](Cc2c[nH]c3ccccc23)C(=O)N[C@@H](CCN)C(=O)N[C@@H](Cc2csc3ccccc23)C(=O)N1C [Example 1187] ({CH2CO}-YPDP[Dap]Q[Hyp]W[Dab][Bta][NMeNle][NMeNle][Orn]CG-NH2; thioether N-14)
11 | > 30.5 nM | – | > 74.3 nM | CCCC[C@H]1C(=O)N2CCC[C@H]2C(=O)N[C@@H](CC(=O)O)C(=O)N[C@@H](C(C)C)C(=O)N(C)[C@@H](Cc2ccccc2)C(=O)N[C@@H](Cc2ccc(O)cc2)C(=O)N(C)CC(=O)N[C@@H](Cc2c[nH]c3ccccc23)C(=O)N[C@@H](Cc2ccc(O)cc2)C(=O)N[C@@H](CC(C)C)C(=O)N[C@H](C(=O)NCC(N)=O)CSCC(=O)N[C@@H](Cc2ccccc2)C(=O)N(C)[C@@H](Cc2ccccc2)C(=O)N1C [Example 3068] (HELM PEPTIDE1{[O=C(C[*:3])[*:2]].F.[meF].[CCCC[C@@H](C(=O)[*:2])N(C)[*:1]].P.D.V.[meF].Y.[Sar].W.Y.L.C.G.[am]}$PEPTIDE1,PEPTIDE1,1:R3-14:R3$$$V2.0)
12 | > 30.5 nM | – | > 74.3 nM | CCCC[C@@H]1NC(=O)[C@H](CCCC)N(C)C(=O)[C@H](CCCC)N(C)C(=O)[C@H](Cc2c[nH]c3ccccc23)NC(=O)[C@H](CO)NC(=O)[C@H](Cc2c[nH]c3ccccc23)NC(=O)CN(C)C(=O)[C@H](CC(C)C)NC(=O)[C@H](Cc2cnc[nH]2)NC(=O)[C@@H]2CCCN2C(=O)[C@H](CC(N)=O)NC(=O)[C@H](C)N(C)C(=O)[C@H](Cc2ccccc2)NC(=O)CSC[C@@H](C(=O)NCC(N)=O)NC1=O [Example 1071] ({CH2CO}-F[NMeA]NPHL[Sar]WSW[NMeNle][NMeNle][Nle]CG-NH2; thioether N-14)
13 | 6.76 to 30.3 nM | 4.78 to 72.9 nM | – | CCCC[C@H]1C(=O)N(C)[C@@H](CCCC)C(=O)N[C@@H](CO)C(=O)N[C@H](C(=O)NCC(N)=O)CSCC(=O)N[C@@H](Cc2ccc(O)cc2)C(=O)N(C)[C@@H](C)C(=O)N[C@@H](CC(N)=O)C(=O)N2CCC[C@H]2C(=O)N[C@@H](Cc2c[nH]cn2)C(=O)N[C@@H](CCC(N)=O)C(=O)N2C[C@H](O)C[C@H]2C(=O)N[C@@H](Cc2c[nH]c3ccccc23)C(=O)N[C@@H](CO)C(=O)N[C@@H](Cc2c[nH]c3ccccc23)C(=O)N1C [Example 5121] ({CH2CO}-Y[NMeA]NPHQ[Hyp]WSW[NMeNle][NMeNle]SCG-NH2; thioether N-14)
14 | 6.76 to 30.3 nM | 0.158 to 4.71 nM | – | CCCC[C@H]1C(=O)N(C)[C@@H](CCCC)C(=O)N[C@@H](CCCNC(=N)N)C(=O)N[C@H](C(=O)NCC(=O)O)CSCC(=O)N[C@@H](Cc2ccc(O)cc2)C(=O)N(C)[C@@H](C)C(=O)N[C@@H](CC(N)=O)C(=O)N2CCC[C@H]2C(=O)N[C@@H](Cc2cnc[nH]2)C(=O)N[C@@H](CC(C)C)C(=O)N2C[C@H](O)C[C@H]2C(=O)N[C@@H](Cc2c[nH]c3ccccc23)C(=O)N[C@@H](CO)C(=O)N[C@@H](Cc2c[nH]c3ccccc23)C(=O)N1C [Example 5068]
